Reference: patent US7348329B2, “Therapeutic agent for keratoconjunctival disorder” (Santen Pharmaceutical Co., Ltd., priority 2003, dated 2008)

Test system: corneal damage in corneal disorder models
Experiment: Test for therapeutic effect on corneal damage (corneal disorder model, exorbital lacrimal gland removed)
Type: in vivo, male SD rats
Settings: for Effect on corneal damage (in words): male SD rat corneal disorder model; for Effect on corneal damage (in words) / Improvement ratio (%): 0.02% eye drops 6 times a day for 7 days; for Improvement ratio (%) / Mean value of total scores (fluorescein staining of upper, middle and lower parts of the cornea): male SD rat; for Improvement ratio (%): {(control)-(compound)}/{(control)-(normal eye)}x100, control = 0%; for Mean value of total scores (fluorescein staining of upper, middle and lower parts of the cornea): 0.02% in physiological saline instilled into both eyes 6 times a day for 7 days, scored 7 days after start, mean of 8 eyes, each part scored 0-3
Experimental: Test for Therapeutic Effect on Corneal Damage
Using male SD rats, in accordance with the method of Fujihara et al. (Invest. Ophthalmol. Vis. Sci. 42 (1): 96-100 (2001)), corneal disorder models were produced. After the production of the corneal disorder models, the improvement ratio of a corneal damage was evaluated according to the method of Murakami et al. (journal of the eye 21 (1): 87-90 (2004))
A male SD rat was systemically anesthetized by an administration of Nembutal. Subsequently the exorbital lacrimal gland was removed and a corneal damage was induced over a period of 2 months.
Then, 5-[4-[[3-methyl-4-oxo-3,4-dihydro-2-quinazolinyl]methoxy]phenylmethyl]thiazolidine-2,4-dione (Compound A) or N-[(4-methoxyphenoxy)carbonyl]-N-[[4-[2-(5-methyl-2-phenyl-4-oxazolyl)ethoxy]phenyl]methyl]glycine (Compound B) was administered as follows.
A physiological saline solution of Compound A (0.02%) was instilled into both eyes 6 times a day for 7 days (one group consisting of 4 animals, 8 eyes).
A physiological saline solution of Compound B (0.02%) was instilled into both eyes 6 times a day for 7 days (one group consisting of 4 animals, 8 eyes).
In a control group, physiological saline was instilled into both eyes 6 times a day for 7 days (one group consisting of 4 animals, 8 eyes).
Seven days after the start of instillation, the damaged parts of the cornea were stained with fluorescein. For each of the upper, middle and lower parts of the cornea, the degree of fluorescein staining was evaluated by scoring according to the criteria shown below and the mean value of the total scores for each of the above-mentioned parts was calculated.
Further, the mean value of the total scores for the normal eye was also calculated.
• 0: No punctate staining • 1: Scattered staining (punctate, separated staining) • 2: Moderate staining(a part of punctate staining being adjacent) • 3: Heavy staining (punctate, barely separated staining) (Results)
By taking the mean value of the total scores for the control group (physiological saline) as a reference (improvement ratio: 0%), the calculation was carried out according to the calculation formula shown below. Each of the improvement ratios for the Compound A administered group and the Compound B administered group are shown in Table 1 and Table 2. The mean value of the scores is a mean of those of 8 cases, respectively. Improvement ratio (%)={(control)−(the present compound)}/damage degree×100 Damage degree=(control)−(normal eye)

In the case of `Cn1c(COc2ccc(CC3SC(=O)NC3=O)cc2)nc2ccccc2c1=O` (stereo not drawn) [Compound A, 5-[4-[[3-methyl-4-oxo-3,4-dihydro-2-quinazolinyl]methoxy]phenylmethyl]thiazolidine-2,4-dione], the “Effect on corneal damage (in words)” value is reported as “significantly improve a corneal damage”, the “Improvement ratio (%)” value is reported as 40.0% and the “Mean value of total scores (fluorescein staining of upper, middle and lower parts of the cornea)” value is reported as 4.8.
For `COc1ccc(OC(=O)N(CC(=O)O)Cc2ccc(OCCc3nc(-c4ccccc4)oc3C)cc2)cc1` [Compound B, N-[(4-methoxyphenoxy)carbonyl]-N-[[4-[2-(5-methyl-2-phenyl-4-oxazolyl)ethoxy]phenyl]methyl]glycine], the “Effect on corneal damage (in words)” value was “significantly improve a corneal damage”, the “Improvement ratio (%)” value was 42.3% and the “Mean value of total scores (fluorescein staining of upper, middle and lower parts of the cornea)” value was 5.2.
